Our source for the Ki and melting point values is patent US6380207B2, “Glucocortiocoid-selective antiinflammatory agents” (Abbott Laboratories, priority 1998, dated 2002).

Series [1] has as its target T1, human progesterone receptor-A [PRA] isoform (Homo sapiens, UniProt P06401).
T1 construct: purchased Ligand Pharmaceuticals (San Diego, Calif.); host or cells: insect SF21 cells (baculovirus)
T1 sequence (P06401 1-769 isoform P06401-2): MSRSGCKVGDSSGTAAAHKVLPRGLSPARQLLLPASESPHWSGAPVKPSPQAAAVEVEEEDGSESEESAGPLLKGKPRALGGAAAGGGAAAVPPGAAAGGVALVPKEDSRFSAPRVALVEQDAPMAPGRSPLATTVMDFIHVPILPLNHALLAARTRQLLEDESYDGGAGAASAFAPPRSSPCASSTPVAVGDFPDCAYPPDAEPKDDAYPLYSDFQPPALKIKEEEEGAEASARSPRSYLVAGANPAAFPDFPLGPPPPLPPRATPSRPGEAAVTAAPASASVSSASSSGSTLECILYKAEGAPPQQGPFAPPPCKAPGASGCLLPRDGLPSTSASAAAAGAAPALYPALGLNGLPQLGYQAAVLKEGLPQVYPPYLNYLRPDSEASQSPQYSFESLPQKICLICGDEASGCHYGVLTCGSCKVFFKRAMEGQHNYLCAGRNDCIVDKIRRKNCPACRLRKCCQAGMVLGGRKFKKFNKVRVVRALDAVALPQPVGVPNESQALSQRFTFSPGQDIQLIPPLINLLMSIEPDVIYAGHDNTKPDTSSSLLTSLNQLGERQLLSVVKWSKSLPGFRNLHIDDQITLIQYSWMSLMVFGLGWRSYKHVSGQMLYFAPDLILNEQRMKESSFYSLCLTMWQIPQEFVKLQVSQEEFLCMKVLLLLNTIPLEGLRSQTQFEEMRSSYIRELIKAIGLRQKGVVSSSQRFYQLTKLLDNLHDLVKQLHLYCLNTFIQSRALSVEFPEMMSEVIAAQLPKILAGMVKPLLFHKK
Put plainly: Radioligand binding with human progesterone receptor cytosol ([3H]-progesterone). The following applies: [3H]Prog competition, 4° C. overnight, Cheng-Prusoff, read-out: Ki (nM) PR. The text has this: (§1) The procedure described in Anal. Biochem. 1970, 37, 244-252, hereby incorporated by reference, was used. Briefly, cytosol preparations of human glucocorticoid receptor-α [GRX] isoform and human progesterone receptor-A [PRA] isoform were obtained from Ligand Pharmaceuticals (San Diego, Calif.). Both receptor cDNAs were cloned into baculovirus expression vectors and expressed in insect SF21 cells. [^3H]-dexamethasone (Dex, specific activity 82-86 Ci/mmole) and [^3H]-progesterone (Prog, specific activity 97-102 Ci/mmol) were purchased from Amersham Life Sciences (Arlington Heights, Ill.). Glass fiber type C multiscreen MAFC NOB plates were from Millipore (Burlington, Mass.). Hydroxyapatide Bio-Gel HTP gel was from Bio-Rad Laboratories (Hercules, Calif.). Tris(hydroxymethyl)aminomethane (Tris), ethylenediaminetetraacetic acid (EDTA), glycerol, dithiothreitol (DTT) and sodium moylybdate were obtained from Sigma Chemicals (St. Louis, Mo.). Microscint-20 scintillation fluid was from Packard Instrument (Meriden, Conn.).
(§2) Stock solutions (32 mM) of compounds were prepared in dimethylsulfoxide (DMSO), and 50× solutions of test compounds were prepared from the 32 mM solution with a 50:50 mixture of DMSO/ethanol. The 50× solution was then diluted with binding buffer that contained 10 mM Tri-HCl, 1.5 mM EDTA, 10% glycerol, 1 mM DTT, 20 mM sodium molybdate, pH 7.5 @ 4° C. 1% DMSO/ethanol was present in the binding assay.
For PR binding assays, [^3H]Prog (˜36,000 dpm (˜0.8 nM)), PRA cytosol (˜40 μg protein), test compounds and binding buffer were mixed in a total volume of 200 μL and incubated at 4° C. at overnight in a plate shaker. Specific binding was defined as the difference between binding of [^3H]Prog in the absence and in the presence of 3 μM unlabelled Prog.
(§3) After an overnight incubation, 50 μL of hydroxyapatite (25% weight/volume) slurry were added to each well and plates were incubated for 10 min at […] in a plate shaker. Plates were suctioned with a Millipore vacuum manifold and each well was rinsed with 300 μL of ice-cold binding buffer. A 250 μL aliquot of Packard Microscint-20 was added to each well and the wells were shaken at room temperature for 20 minutes. The amount of radioactivity was determined with a Packard TopCount plate reader.
(§4) The concentration of test compounds that inhibited 50% of specific binding (IC50) was determined from a Hill analysis of the competitive binding experiments. The Ki of test compounds was determined using the Cheng-Prusoff equation Ki=IC50/(1+[L*]/[KL]) where L* is the concentration of radioligand and KL is the dissociation constant of the radioligand determined from saturation analysis. For GRX, KL was ˜1.5 nM, and for PRA, KL was ˜4.5 nM.

The target in series [2] is T2, human glucocorticoid receptor-α [GRX] isoform (Homo sapiens, UniProt P04150).
T2 construct: purchased Ligand Pharmaceuticals (San Diego, Calif.); host or cells: insect SF21 cells (baculovirus)
T2 sequence (P04150 1-777): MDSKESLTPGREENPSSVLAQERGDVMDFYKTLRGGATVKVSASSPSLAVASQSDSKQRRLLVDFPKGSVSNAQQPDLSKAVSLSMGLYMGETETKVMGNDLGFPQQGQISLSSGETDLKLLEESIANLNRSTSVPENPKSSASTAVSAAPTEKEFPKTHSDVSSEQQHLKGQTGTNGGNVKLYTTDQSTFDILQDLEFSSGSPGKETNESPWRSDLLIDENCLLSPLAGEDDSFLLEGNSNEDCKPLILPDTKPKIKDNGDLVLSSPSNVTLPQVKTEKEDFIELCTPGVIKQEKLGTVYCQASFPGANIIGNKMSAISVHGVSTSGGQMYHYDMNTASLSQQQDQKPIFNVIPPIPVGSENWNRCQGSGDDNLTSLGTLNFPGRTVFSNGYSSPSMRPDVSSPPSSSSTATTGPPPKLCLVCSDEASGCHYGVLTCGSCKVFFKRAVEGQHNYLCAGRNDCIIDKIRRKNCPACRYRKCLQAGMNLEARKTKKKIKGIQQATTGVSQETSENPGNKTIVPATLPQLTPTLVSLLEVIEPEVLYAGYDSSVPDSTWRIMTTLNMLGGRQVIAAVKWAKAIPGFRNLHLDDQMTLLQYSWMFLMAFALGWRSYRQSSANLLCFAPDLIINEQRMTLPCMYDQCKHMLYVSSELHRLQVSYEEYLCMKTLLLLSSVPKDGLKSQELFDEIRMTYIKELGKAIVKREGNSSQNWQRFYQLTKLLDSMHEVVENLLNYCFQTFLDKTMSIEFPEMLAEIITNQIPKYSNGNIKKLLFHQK
Put plainly: Radioligand binding with human glucocorticoid receptor cytosol ([3H]-dexamethasone). The following applies: [3H]-Dex competition, 4° C. overnight, Cheng-Prusoff, read-out: Ki (nM) GR.
Description: as §1, §2
GRX and PRA binding reactions were performed in Millipore Multiscreen plates. For GR binding assays, [^3H]-Dex (˜35,000 dpm (˜0.9 nM)), GRX cytosol (˜35 μg protein), test compounds and binding buffer were mixed in a total volume of 200 μL and incubated at 4° C. overnight in a plate shaker. Specific binding was defined as the difference between binding of [^3H]Dex in the absence and in the presence of 1 μM unlabelled Dex.
as §3, §4

SMILES strings stand for the structures.

On to `COc1cc2c(c3c1-c1ccccc1OC3c1ccccc1)C(C)=CC(C)(C)N2` (stereo not drawn) [Example 1, 2,5-dihydro-11-methoxy-5-phenyl-2,2,4-trimethyl-1H-[1]benzopyrano[3,4-f]quinoline], for which the Ki in series [1] was 10000 nM; in series [2], 230 nM.
For `C=CCC1Oc2ccccc2-c2c(OC)cc3c(c21)C(C)=CC(C)(C)N3` (stereo not drawn) [Example 2, 2,5-dihydro-11-methoxy-5-(2-propenyl)-2,2,4-trimethyl-1H-[1]benzopyrano[3,4-f]quinoline], the melting point lay within 84 to 86 °C. Also, the Ki in series [1] was 14000 nM. For the same molecule, the inhibition constant (Ki) in series [2] came to 640 nM.
Turning to `COc1cc2c(c3c1-c1ccccc1OC3c1cc(Cl)cc(Cl)c1)C(C)=CC(C)(C)N2` (stereo not drawn) [Example 3, 2,5-dihydro-11-methoxy-5-(3,5-dichlorophenyl)-2,2,4-trimethyl-1H-[1]benzopyrano[3,4-f]quinoline], the Ki is 10000 nM in series [1] and 200 nM in series [2].
In the case of `C=C1CC(C)(C)Nc2cc(OC)c3c(c21)C(c1cc(Cl)cc(Cl)c1)Oc1ccccc1-3` (stereo not drawn) [Example 4, 2,3,5-trihydro-11-methoxy-5-(3,5-dichlorophenyl)-2,2,4-dimethyl-4-methylene-1H-[1]benzopyrano[3,4-f]quinoline], the Ki stood at 8600 nM in series [1] and 270 nM in series [2].
